Measurements published in ChEMBL document CHEMBL1138332, “Synthesis of natural product-inspired inhibitors of Mycobacterium tuberculosis mycothiol-associated enzymes: the first inhibitors of GlcNAc-Ins deacetylase” (J Med Chem, 2007).

Assays:
[1] = biological target: T1, 1D-myo-inositol 2-acetamido-2-deoxy-alpha-D-glucopyranoside deacetylase (Mycobacterium tuberculosis, UniProt P9WJN3); assay: Inhibition of Mycobacterium tuberculosis MshB by fluorescence-detected HPLC assay
T1 sequence (P9WJN3 whole entry): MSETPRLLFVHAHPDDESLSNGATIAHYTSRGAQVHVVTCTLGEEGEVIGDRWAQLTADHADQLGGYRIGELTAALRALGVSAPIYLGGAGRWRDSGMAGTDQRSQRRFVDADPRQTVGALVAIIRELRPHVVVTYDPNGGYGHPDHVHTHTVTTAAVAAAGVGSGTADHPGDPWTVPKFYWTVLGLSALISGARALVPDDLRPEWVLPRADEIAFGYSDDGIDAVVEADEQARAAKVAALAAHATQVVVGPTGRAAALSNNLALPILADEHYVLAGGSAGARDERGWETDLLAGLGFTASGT

[2] = biological target: T2, Mycothiol S-conjugate amidase (Mycobacterium tuberculosis, UniProt P9WJN1); assay: Inhibition of Mycobacterium tuberculosis MCA by fluorescence-detected HPLC assay
T2 sequence (P9WJN1 whole entry): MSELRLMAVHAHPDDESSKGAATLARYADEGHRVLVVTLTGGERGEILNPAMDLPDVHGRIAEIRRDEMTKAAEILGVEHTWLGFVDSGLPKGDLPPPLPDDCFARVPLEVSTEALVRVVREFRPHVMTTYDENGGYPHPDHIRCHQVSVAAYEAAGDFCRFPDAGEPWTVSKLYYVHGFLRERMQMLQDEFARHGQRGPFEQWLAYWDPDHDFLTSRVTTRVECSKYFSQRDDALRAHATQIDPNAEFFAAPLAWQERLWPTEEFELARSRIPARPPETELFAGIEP

Compound: CC(C)(C)C(=O)ON[C@@H](CCc1ccccc1)C(=O)N[C@H]1[C@H](O)[C@@H](O)[C@H](CO)O[C@H]1SC1CCCCC1
- IC50 [1]: > 200 µM
- IC50 [2]: 145 µM

Compound: O=C(N[C@H]1[C@H](O)[C@@H](O)[C@H](CO)O[C@H]1SC1CCCCC1)c1ccc(-c2ccc(Cl)cc2)o1 (single isomer, unassigned)
- IC50 [1]: 7 µM
- IC50 [2]: 33 µM

Compound: O=S(=O)(CCCCc1ccccc1)N[C@H]1[C@H](O)[C@@H](O)[C@H](CO)O[C@H]1SC1CCCCC1 (single isomer, unassigned)
- IC50 [1]: 101 µM
- IC50 [2]: 120 µM

Compound: O=C(N[C@H]1[C@H](O)[C@@H](O)[C@H](CO)O[C@H]1SC1CCCCC1)C1CCOC(c2cccc(F)c2)=N1 (single isomer, unassigned)
- IC50 [1]: 10 µM
- IC50 [2]: > 200 µM

Compound: O=C(N[C@H]1[C@H](O)[C@@H](O)[C@H](CO)O[C@H]1SC1CCCCC1)C1COC(c2cccc(F)c2)=N1 (single isomer, unassigned)
- IC50 [1]: 28 µM
- IC50 [2]: > 200 µM

Compound: O=S(=O)(/C=C/CCc1ccccc1)N[C@H]1[C@H](O)[C@@H](O)[C@H](CO)O[C@H]1SC1CCCCC1 (single isomer, unassigned)
- IC50 [1]: 105 µM
- IC50 [2]: 90 µM
